test system: LNCaP cells transfected with CN390; assay: steroid hormone specificity of the 1.17-kb hKLK2 enhancer, luciferase reporter; type: cell-based, human; details: FIG. 14
Procedure: To assess the androgen specificity of the hKLK2 enhancer, LNCaP cells transfected with CN390 (1.17-kb “full enhancer activity” hKLK2 enhancer/minimal hKLK2 promoter) were treated with various steroid hormones.

Compound	induction of luciferase activity by steroid hormone vs cells not treated with hormones
C[C@]12CCC(=O)C[C@@H]1CC[C@@H]1[C@@H]2CC[C@]2(C)[C@@H](O)CC[C@@H]12 [DHT, dihydrotestosterone]	marked increases in luciferase activity
C[C@@H]1C[C@H]2[C@@H]3CCC4=CC(=O)C=C[C@]4(C)[C@@]3(F)[C@@H](O)C[C@]2(C)[C@@]1(O)C(=O)CO [DEX]	little or no inducibility
C[C@]1(O)CC[C@H]2[C@@H]3CCC4=CC(=O)CCC4=C3C=C[C@@]21C [R1881, methyl trienolone]	marked increases in luciferase activity
CC/C(=C(/CC)c1ccc(O)cc1)c1ccc(O)cc1 [DES]	little or no inducibility

— patent US6916918B2, “Human glandular kallikrein enhancer, vectors comprising the enhancer and methods of use thereof” (priority 1997, dated 2005)
